Laboratory results reported in patent publication US20260021103A1, “IKZF2 AND CK1-ALPHA DEGRADING COMPOUNDS AND USES THEREOF” (President and Fellows of Harvard College, priority 2022, published 2026).

What was measured:
Type in all cases: cell-based
Details in all cases: 24 h, HEK293T GFP reporter
IKZF1 = target: T1, IKZF1 (Homo sapiens, UniProt Q13422+Q96SW2); test: Flow cytometry for measuring degradation, HEK293T GFP-POI reporter cells (IKZF1)
T1 construct: expressed in transfected cells; host or cells: HEK293T (lentiviral transduction, puromycin selection, FACS sorting)
T1 sequence (Q13422 whole entry): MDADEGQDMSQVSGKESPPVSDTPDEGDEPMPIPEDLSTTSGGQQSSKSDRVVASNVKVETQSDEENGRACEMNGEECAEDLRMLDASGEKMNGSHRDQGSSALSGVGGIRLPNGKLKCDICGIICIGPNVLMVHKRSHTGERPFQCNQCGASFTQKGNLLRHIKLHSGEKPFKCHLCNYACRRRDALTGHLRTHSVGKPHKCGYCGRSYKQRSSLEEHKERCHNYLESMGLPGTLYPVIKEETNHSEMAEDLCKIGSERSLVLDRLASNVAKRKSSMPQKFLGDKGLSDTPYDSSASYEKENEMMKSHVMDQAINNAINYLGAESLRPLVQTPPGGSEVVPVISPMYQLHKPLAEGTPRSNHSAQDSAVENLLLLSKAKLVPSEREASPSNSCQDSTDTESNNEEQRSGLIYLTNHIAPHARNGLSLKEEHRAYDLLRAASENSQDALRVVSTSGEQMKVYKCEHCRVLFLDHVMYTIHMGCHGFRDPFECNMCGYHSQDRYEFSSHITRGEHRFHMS
T1 sequence (Q96SW2 whole entry): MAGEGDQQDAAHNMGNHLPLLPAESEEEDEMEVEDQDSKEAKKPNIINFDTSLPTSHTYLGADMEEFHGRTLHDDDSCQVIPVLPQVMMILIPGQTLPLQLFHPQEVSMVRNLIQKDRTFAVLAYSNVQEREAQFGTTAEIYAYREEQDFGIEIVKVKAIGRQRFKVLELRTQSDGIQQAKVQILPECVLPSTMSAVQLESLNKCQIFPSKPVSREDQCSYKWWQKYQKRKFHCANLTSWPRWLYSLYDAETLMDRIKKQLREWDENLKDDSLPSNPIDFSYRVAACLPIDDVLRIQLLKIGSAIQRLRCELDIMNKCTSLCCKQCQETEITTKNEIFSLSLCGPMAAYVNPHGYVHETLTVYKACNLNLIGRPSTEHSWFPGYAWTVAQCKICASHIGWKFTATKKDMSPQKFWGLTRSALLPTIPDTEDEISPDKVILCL
T1 sequence (Q16531 whole entry partner): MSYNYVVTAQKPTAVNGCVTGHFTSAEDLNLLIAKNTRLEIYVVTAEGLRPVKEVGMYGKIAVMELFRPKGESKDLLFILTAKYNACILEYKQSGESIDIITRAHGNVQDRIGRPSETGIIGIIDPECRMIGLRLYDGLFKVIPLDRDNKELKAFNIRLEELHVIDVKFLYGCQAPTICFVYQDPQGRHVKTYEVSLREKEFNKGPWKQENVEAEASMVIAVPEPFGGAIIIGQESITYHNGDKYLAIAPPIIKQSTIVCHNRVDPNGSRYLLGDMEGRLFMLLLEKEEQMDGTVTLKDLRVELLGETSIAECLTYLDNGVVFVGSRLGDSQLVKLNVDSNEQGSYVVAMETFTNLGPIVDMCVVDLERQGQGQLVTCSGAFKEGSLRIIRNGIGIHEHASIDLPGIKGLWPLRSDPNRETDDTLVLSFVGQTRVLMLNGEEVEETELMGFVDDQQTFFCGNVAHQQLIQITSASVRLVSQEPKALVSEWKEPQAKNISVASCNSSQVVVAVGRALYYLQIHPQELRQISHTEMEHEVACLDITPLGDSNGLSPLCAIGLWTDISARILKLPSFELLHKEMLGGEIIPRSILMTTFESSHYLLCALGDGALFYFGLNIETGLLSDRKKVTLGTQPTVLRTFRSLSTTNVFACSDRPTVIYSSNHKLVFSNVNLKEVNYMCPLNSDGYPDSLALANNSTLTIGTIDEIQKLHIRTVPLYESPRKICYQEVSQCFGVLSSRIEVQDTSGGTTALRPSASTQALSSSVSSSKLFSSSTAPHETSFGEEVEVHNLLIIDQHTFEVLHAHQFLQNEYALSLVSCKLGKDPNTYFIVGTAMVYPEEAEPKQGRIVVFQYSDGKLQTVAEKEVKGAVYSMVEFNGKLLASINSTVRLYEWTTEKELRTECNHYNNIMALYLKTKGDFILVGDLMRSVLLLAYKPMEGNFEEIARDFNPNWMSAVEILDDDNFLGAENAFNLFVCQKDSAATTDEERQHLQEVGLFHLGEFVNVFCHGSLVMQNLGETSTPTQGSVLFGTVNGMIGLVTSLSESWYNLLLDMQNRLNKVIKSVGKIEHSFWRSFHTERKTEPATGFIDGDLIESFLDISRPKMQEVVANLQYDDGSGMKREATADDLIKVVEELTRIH

IKZF2 = target: T2, IKZF2 (Homo sapiens, UniProt Q96SW2+Q9UKS7); test: Flow cytometry for measuring degradation, HEK293T GFP-POI reporter cells (IKZF2)
T2 construct: expressed in transfected cells; host or cells: HEK293T (lentiviral transduction, puromycin selection, FACS sorting)
T2 sequence (Q9UKS7 whole entry): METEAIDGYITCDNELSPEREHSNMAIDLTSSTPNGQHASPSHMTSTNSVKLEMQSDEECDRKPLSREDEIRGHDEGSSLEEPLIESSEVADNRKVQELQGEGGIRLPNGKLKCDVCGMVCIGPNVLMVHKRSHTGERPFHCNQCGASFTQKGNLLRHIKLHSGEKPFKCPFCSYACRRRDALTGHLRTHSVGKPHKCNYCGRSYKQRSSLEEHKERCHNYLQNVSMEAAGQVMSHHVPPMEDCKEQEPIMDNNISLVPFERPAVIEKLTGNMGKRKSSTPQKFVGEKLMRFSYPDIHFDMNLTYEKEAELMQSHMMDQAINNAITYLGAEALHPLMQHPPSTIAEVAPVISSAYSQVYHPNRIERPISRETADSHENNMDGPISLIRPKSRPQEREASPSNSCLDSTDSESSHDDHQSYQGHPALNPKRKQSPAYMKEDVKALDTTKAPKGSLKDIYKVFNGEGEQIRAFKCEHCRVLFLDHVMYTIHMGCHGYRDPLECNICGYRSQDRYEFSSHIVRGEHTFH
T2 sequence (Q96SW2 whole entry): as the sequence (Q96SW2 whole entry) above
T2 sequence (Q16531 whole entry partner): as the sequence (Q16531 whole entry partner) above

CK1α = target: T3, CK1α (Homo sapiens, UniProt P48729+Q96SW2); test: Flow cytometry for measuring degradation, HEK293T GFP-POI reporter cells (CK1α)
T3 construct: expressed in transfected cells; host or cells: HEK293T (lentiviral transduction, puromycin selection, FACS sorting)
T3 sequence (P48729 whole entry): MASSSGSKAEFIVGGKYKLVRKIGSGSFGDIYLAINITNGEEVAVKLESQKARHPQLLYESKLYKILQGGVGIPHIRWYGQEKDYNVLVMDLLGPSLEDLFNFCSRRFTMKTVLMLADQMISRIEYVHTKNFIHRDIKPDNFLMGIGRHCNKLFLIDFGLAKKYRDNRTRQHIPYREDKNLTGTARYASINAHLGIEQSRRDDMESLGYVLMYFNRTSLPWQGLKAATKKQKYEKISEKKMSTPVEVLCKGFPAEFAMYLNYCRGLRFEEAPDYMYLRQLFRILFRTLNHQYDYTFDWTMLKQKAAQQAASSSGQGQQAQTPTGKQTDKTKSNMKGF
T3 sequence (Q96SW2 whole entry): as the sequence (Q96SW2 whole entry) above
T3 sequence (Q16531 whole entry partner): as the sequence (Q16531 whole entry partner) above

GSPT1 = GSPT1 (Homo sapiens, UniProt P15170+Q96SW2); test: Flow cytometry for measuring degradation, HEK293T GFP-POI reporter cells (GSPT1); set-up: expressed in transfected cells; host or cells: HEK293T
Sequence of GSPT1 (P15170 whole entry): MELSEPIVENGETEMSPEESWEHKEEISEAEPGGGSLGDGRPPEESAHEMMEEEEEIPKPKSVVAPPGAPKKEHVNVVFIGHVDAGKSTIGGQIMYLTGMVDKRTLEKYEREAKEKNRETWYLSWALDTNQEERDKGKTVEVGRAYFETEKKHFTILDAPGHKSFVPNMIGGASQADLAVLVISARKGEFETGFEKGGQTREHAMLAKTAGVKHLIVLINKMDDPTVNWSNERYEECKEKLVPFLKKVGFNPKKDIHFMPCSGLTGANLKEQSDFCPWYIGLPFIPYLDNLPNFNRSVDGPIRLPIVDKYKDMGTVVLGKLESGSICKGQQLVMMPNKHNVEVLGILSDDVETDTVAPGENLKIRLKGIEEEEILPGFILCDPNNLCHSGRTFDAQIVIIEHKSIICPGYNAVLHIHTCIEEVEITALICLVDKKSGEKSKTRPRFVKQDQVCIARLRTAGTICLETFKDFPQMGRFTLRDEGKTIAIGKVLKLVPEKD
Sequence of GSPT1 (Q96SW2 whole entry): as the sequence (Q96SW2 whole entry) above
Sequence of GSPT1 (Q16531 whole entry partner): as the sequence (Q16531 whole entry partner) above

| SMILES | IKZF1% degradation at 100 nM (IKZF1) | IKZF1% degradation at 1 μM (IKZF1) | IKZF2% degradation at 100 nM (IKZF2) | IKZF2% degradation at 1 μM (IKZF2) | CK1α % degradation at 100 nM (CK1α) | CK1α % degradation at 1 μM (CK1α) | GSPT1% degradation at 100 nM (GSPT1) | GSPT1% degradation at 1 μM (GSPT1) |
| --- | --- | --- | --- | --- | --- | --- | --- | --- |
| O=C1CCC(N2Cc3cc(NC(=O)c4cccc(C(=O)c5ccccc5)c4)ccc3C2=O)C(=O)N1 (centres unmarked) [DEG-51, 3-benzoyl-N-(2-(2,6-dioxopiperidin-3-yl)-1-oxoisoindolin-5-yl)benzamide] | 59.5 ± 0.2% | 84 ± 0.2% | 82.6 ± 0.3% | 93.9 ± 0% | 63.7 ± 1.1% | 69.8 ± 0.5% | 9 ± 1.6% | 13.7 ± 0.3% |
| O=C1CCC(N2Cc3cc(NC(=O)c4ccc5c(c4)OCCO5)ccc3C2=O)C(=O)N1 (centres unmarked) [DEG-53, N-(2-(2,6-dioxopiperidin-3-yl)-1-oxoisoindolin-5-yl)-2,3-dihydrobenzo[b]dioxine-6-carboxamide] | 9.3 ± 0.8% | 8.8 ± 1.6% | 38.5 ± 0.2% | 76.5 ± 0.7% | 36.2 ± 4.5% | 55.4 ± 3.9% | 5 ± 1.4% | 2.4 ± 0.9% |
| O=C1CCC(N2Cc3cc(NC(=O)c4ccc5c(c4)OCO5)ccc3C2=O)C(=O)N1 (centres unmarked) [DEG-54, N-(2-(2,6-dioxopiperidin-3-yl)-1-oxoisoindolin-5-yl)benzo[d][1,3]dioxole-5-carboxamide] | 7.4 ± 0.8% | 9.7 ± 1.4% | 49.2 ± 0.2% | 84.1 ± 0.3% | 33.5 ± 10% | 57.6 ± 3.5% | 5.2 ± 1.5% | 3.3 ± 1.7% |

More lines, now with the values ahead:

| IKZF1% degradation at 100 nM (IKZF1) | IKZF1% degradation at 1 μM (IKZF1) | IKZF2% degradation at 100 nM (IKZF2) | IKZF2% degradation at 1 μM (IKZF2) | CK1α % degradation at 100 nM (CK1α) | CK1α % degradation at 1 μM (CK1α) | GSPT1% degradation at 100 nM (GSPT1) | GSPT1% degradation at 1 μM (GSPT1) | SMILES |
| --- | --- | --- | --- | --- | --- | --- | --- | --- |
| 81.9 ± 0.7% | 92.5 ± 0.2% | 76.2 ± 0.4% | 88.6 ± 0.2% | 40.3 ± 11.2% | 54.1 ± 2.1% | 11.7 ± 1.3% | 9.9 ± 0.8% | COc1ccc(CCC(=O)Nc2ccc3c(c2)CN(C2CCC(=O)NC2=O)C3=O)cc1 (centres unmarked) [DEG-57] |
| 97.7 ± 0.1% | 98.4 ± 0% | 93 ± 0.2% | 95.8 ± 0.1% | 63.4 ± 0.6% | 57 ± 0.1% | 29 ± 1.9% | 41.9 ± 0.8% | COc1ccc2c(CC(=O)Nc3ccc4c(c3)CN(C3CCC(=O)NC3=O)C4=O)cccc2c1 (centres unmarked) [DEG-58, N-(2-(2,6-dioxopipperidin-3-yl)-1-oxoisoindolin-5-yl)-2-(6-methoxynaphthalen-1-yl)acetamide] |
| 17.6 ± 0.8% | 40.3 ± 0.9% | 74.7 ± 0.3% | 89.5 ± 0.2% | 64.3 ± 1.3% | 68.3 ± 1.2% | 11.6 ± 1.4% | 16.5 ± 2% | COc1ccc(/C=C/C(=O)Nc2ccc3c(c2)CN(C2CCC(=O)NC2=O)C3=O)cc1 (centres unmarked) [DEG-60, (E)-N-(2-(2,6-dioxopiperidin-3-yl)-1-oxoisoindolin-5-yl)-3-(4-methoxyphenyl)acrylamide] |
| 6.4 ± 0.3% | 22.3 ± 0.5% | 61.1 ± 0.5% | 90.6 ± 0.1% | 50.2 ± 1.7% | 64.7 ± 0.4% | 2 ± 2.1% | 4.4 ± 1.9% | O=C1CCC(N2Cc3cc(NC(=O)c4ccc5occc5c4)ccc3C2=O)C(=O)N1 (centres unmarked) [DEG-62, N-(2-(2,6-dioxopiperidin-3-yl)-1-oxoisoindolin-5-yl)benzofuran-5-carboxamide] |
